Read-outs that look alike come from different tables or passages of the source.
How the values were obtained:
grayed hair = experiment: Half-Head technique application to scalp of men having grayed hair; type: in vivo, men (40 to 60 years old)
Description: Then, the effects of preventing graying of the hair and restoring grayed hair to its natural color were evaluated by comparing the conditions of the portions observed before and after the application of Samples and the results obtained were listed in the following Table VIII. […]
Then, the effectiveness of the hair cream of the invention and that of Comp.

[1] = Sensory test: degree of change in smell after standing at 30° C. for 3 months;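 for Stability S.E. (Sensory Evaluation): double circle means no smell deterioration on a four-grade scale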; type: physicochemical; conditions: for Stability S.E. (Sensory Evaluation) / deterioration in smell (in words): 30° C., 3 months
Description: (§1) One month thereafter, regenerated hair was collected from a constant area and the rate (%) of generated grayed hair to all the number of hair collected was estimated. In addition, the aforementioned hair tonic type preparations were allowed to stand at 30° C. for 3 months and the residual amount of the test compounds therein was examined by liquid chromatography as well as the degree of change in smell was also evaluated by means of sensory test.
(§2) One month thereafter, regenerated hair was collected from a constant area and the rate (%) of generated grayed hair to all the number of hair collected was estimated. In addition, the aforementioned compositions were allowed to stand at 30° C. for 3 months and the residual amount of the test compounds therein was examined by liquid chromatography as well as the degree of change in smell was also evaluated by sensory test. […] In addition, the abbreviation P means the averaged added molar number of ethylene oxide residues.

[2] = Stability: residual amount of test compound after standing at 30° C. for 3 months, liquid chromatography; type: physicochemical
Description: as §1, §2

[3] = system: grayed hair (melanocytes); experiment: Inhibition of generation of grayed hair in stressed black mice; type: in vivo; conditions: for Rate of Grayed Hair (%): 0.1 ml twice a day, 1 month
Description: It is known that stress is one of the causes of graying of the hair. […] Moreover, the stability of the composition with time was also estimated.
as §1, §2

[4] = Examples 3 to 5, Half-Head, men, 3 months
[5] = hair tonic, Table III, 0.1% in hair tonic, 30° C., 3 months, read-out: Stability Residue(%)
[6] = Table III, 0.1% test compound in hair tonic, control 16.5
[7] = Example 7, hair cream as in Example 5
[8] = hair tonic, Table V, 0.05% in hair tonic, 30° C., 3 months, read-out: Stability Residue(%)
[9] = Table V, 0.05% test compound in hair tonic, control 17.1
[10] = Example 6, hair tonic as in Example 3

| Structure (SMILES) | Stability S.E. (Sensory Evaluation) ([1]; Table III, 0.1% in hair tonic) | Rate of Grayed Hair (%) [3, 6] | quality deterioration such as giving out of bad smell ([1]; Example 7, hair cream) | stability (in words) ([2]; Example 7, hair cream) | effect of preventing graying of the hair and restoring grayed hair to its natural color (in words) (grayed hair; [7]) | also measured |
| --- | --- | --- | --- | --- | --- | --- |
| O=P1(O)OC[C@H]2O[C@@H](n3cnc4c3ncn3ccnc43)[C@H](O)[C@@H]2O1 [1,N^6 -etheno cAMP-K] |  |  |  |  |  | effect of preventing graying of the hair and restoring grayed hair to its natural color (in words) (grayed hair; [4]): remarkable effects of preventing graying of the hair and restoring grayed hair to its natural color |
| O=P1(O)OC[C@H]2O[C@@H](n3cnc4c3ncn3ccnc43)[C@H](O)[C@@H]2O1 [1,N^6 -etheno cAMP] | .circleincircle. | 7.5% |  |  |  | remaining at 2190 h [2, 5]: 99.8% |
| CCCCn1cnc2c(ncn2[C@@H]2O[C@@H]3COP(=O)([O-])O[C@H]3[C@H]2O)c1=N.[Na+] [1-butyl cAMP-Na] |  |  | did not cause quality deterioration such as giving out of bad smell | stable | the same effect of preventing graying of the hair and restoring grayed hair to its natural color as in Example 5 |  |
| CCn1cnc2c(ncn2[C@@H]2O[C@@H]3COP(=O)([O-])O[C@H]3[C@H]2O)c1=N.[Na+] [1-ethyl cAMP-Na] |  |  | did not cause quality deterioration such as giving out of bad smell | stable | the same effect of preventing graying of the hair and restoring grayed hair to its natural color as in Example 5 |  |
| CCN(CC)CC.Cn1cnc2c(ncn2[C@@H]2O[C@@H]3COP(=O)(O)O[C@H]3[C@H]2O)c1=N [1-methyl cAMP-triethylammonium] |  |  |  |  |  | effect of preventing graying of the hair and restoring grayed hair to its natural color (in words) (grayed hair; [4]): remarkable effects of preventing graying of the hair and restoring grayed hair to its natural color |
| Cn1cnc2c(ncn2[C@@H]2O[C@@H]3COP(=O)(O)O[C@H]3[C@H]2O)c1=N [1-methyl cAMP] | .circleincircle. | 8.2% |  |  |  | Stability Residue(%) ([2]; Table III, 0.1% in hair tonic, 30° C., 3 months, 131400 min): 99.6% |
| CCCCCCCCn1cnc2c(ncn2[C@@H]2O[C@@H]3COP(=O)([O-])O[C@H]3[C@H]2O)c1=N.[Na+] [1-octyl cAMP-Na] |  |  | did not cause quality deterioration such as giving out of bad smell | stable | the same effect of preventing graying of the hair and restoring grayed hair to its natural color as in Example 5 |  |
| Nc1ncnc2c1nc(Sc1ccc(Cl)cc1)n2[C@@H]1O[C@@H]2COP(=O)(O)O[C@H]2[C@H]1O [8-4-chlorophenylthio cAMP-Na] |  |  |  |  |  | Stability S.E. (Sensory Evaluation) ([1]; Table V, 0.05% in hair tonic): .circleincircle.; remaining at 2190 h [2, 8]: 99.9%; Rate of Grayed Hair (%) [3, 9]: 6.0% |
| Nc1ncnc2c1nc(SCc1ccccc1)n2[C@@H]1O[C@@H]2COP(=O)(O)O[C@H]2[C@H]1O [8-benzylthio cAMP-Na] |  |  |  |  |  | quality deterioration such as giving out of bad smell ([1]; Example 6, hair tonic): did not cause quality deterioration such as giving out of bad smell; stability (in words) ([2]; Example 6, hair tonic): stable; effect of preventing graying of the hair and restoring grayed hair to its natural color (in words) (grayed hair; [10]): the same effect of preventing graying of the hair and restoring grayed hair to its natural color as in Example 3 |
| Nc1ncnc2c1nc(SCc1ccccc1)n2[C@@H]1O[C@@H]2COP(=O)(O)O[C@H]2[C@H]1O [8-benzylthio cAMP] | .circleincircle. | 7.2% |  |  |  | remaining at 2190 h [2, 5]: 100% |
| CCCCOc1nc2c(N)ncnc2n1[C@@H]1O[C@@H]2COP(=O)(O)O[C@H]2[C@H]1O [8-butoxy cAMP-Na] |  |  |  |  |  | quality deterioration such as giving out of bad smell ([1]; Example 6, hair tonic): did not cause quality deterioration such as giving out of bad smell; Stability S.E. (Sensory Evaluation) ([1]; Table V, 0.05% in hair tonic): .circleincircle.; stability (in words) ([2]; Example 6, hair tonic): stable; remaining at 2190 h [2, 8]: 99.9%; effect of preventing graying of the hair and restoring grayed hair to its natural color (in words) (grayed hair; [10]): the same effect of preventing graying of the hair and restoring grayed hair to its natural color as in Example 3; Rate of Grayed Hair (%) [3, 9]: 6.0% |
| CCCCNc1nc2c(N)ncnc2n1[C@@H]1O[C@@H]2COP(=O)(O)O[C@H]2[C@H]1O [8-butylamino cAMP-Na] |  |  | did not cause quality deterioration such as giving out of bad smell | stable | the same effect of preventing graying of the hair and restoring grayed hair to its natural color as in Example 5 | Stability S.E. (Sensory Evaluation) ([1]; Table V, 0.05% in hair tonic): .circleincircle.; remaining at 2190 h [2, 8]: 99.5%; Rate of Grayed Hair (%) [3, 9]: 7.1% |
| Nc1ncnc2c1nc(Cl)n2[C@@H]1O[C@@H]2COP(=O)(O)O[C@H]2[C@H]1O [8-chloro cAMP-Na] |  |  | did not cause quality deterioration such as giving out of bad smell | stable | the same effect of preventing graying of the hair and restoring grayed hair to its natural color as in Example 5 |  |
| Nc1ncnc2c1nc(F)n2[C@@H]1O[C@@H]2COP(=O)(O)O[C@H]2[C@H]1O [8-fluoro cAMP] | .circleincircle. | 7.6% |  |  |  | remaining at 2190 h [2, 5]: 99.5% |
| COc1nc2c(N)ncnc2n1[C@@H]1O[C@@H]2COP(=O)(O)O[C@H]2[C@H]1O [8-methoxy cAMP] | .circleincircle. | 7.8% |  |  |  | remaining at 2190 h [2, 5]: 99.7% |
| CNc1nc2c(N)ncnc2n1[C@@H]1O[C@@H]2COP(=O)(O)O[C@H]2[C@H]1O [8-methylamino cAMP-Na] |  |  | did not cause quality deterioration such as giving out of bad smell | stable | the same effect of preventing graying of the hair and restoring grayed hair to its natural color as in Example 5 |  |
| CSc1nc2c(N)ncnc2n1[C@@H]1O[C@@H]2COP(=O)(O)O[C@H]2[C@H]1O [8-methylthio cAMP-Na] |  |  | did not cause quality deterioration such as giving out of bad smell | stable | the same effect of preventing graying of the hair and restoring grayed hair to its natural color as in Example 5 |  |
| CSc1nc2c(N)ncnc2n1[C@@H]1O[C@@H]2COP(=O)(O)O[C@H]2[C@H]1O [8-methylthio cAMP] | .circleincircle. | 8.0% |  |  |  | remaining at 2190 h [2, 5]: 99.9% |
| Nc1ncnc2c1nc(Sc1ccccc1)n2[C@@H]1O[C@@H]2COP(=O)(O)O[C@H]2[C@H]1O [8-phenylthio cAMP] | .circleincircle. | 7.1% |  |  |  | remaining at 2190 h [2, 5]: 100% |
| CCCC(=O)Nc1ncnc2c1ncn2[C@@H]1O[C@@H]2COP(=O)(O)O[C@H]2[C@H]1OC(=O)CCC [N^6,O^2' -dibutyryl cAMP, reference compound] |  | 9.1% |  |  |  | deterioration in smell (in words) ([1]; Example 1): high deterioration in smell; remaining at 2190 h ([2]; hair tonic, Stability Residue(%)): 86.4%; effect of inhibiting generation of grayed hair (in words) ([3]; Example 1, 0.1%): exhibits the grayed hair inhibitory effect |
| CCCC(=O)Nc1ncnc2c1ncn2[C@@H]1O[C@@H]2COP(=O)(O)O[C@H]2[C@H]1OC(=O)CCC [N^6,O^2' -dibutyryl cAMP-Na, reference compound] |  |  |  |  |  | deterioration in smell (in words) ([1]; Example 2): substantial deterioration in smell; Stability Residue(%) ([2]; hair tonic, 2190 h): 84.5%; effect of inhibiting generation of grayed hair (in words) ([3]; Example 2, 0.05%): exhibits the aforementioned effect; Rate of Grayed Hair (%) [3, 9]: 8.8% |

From patent US5318776A, “Composition for preventing graying of the hair” (priority 1988, dated 1994)
